Reference: US8741940B2, “Microbicidal composition” (Rohm and Haas Company, priority 2005, dated 2014)
Counter-ions that a name gives are not always drawn. Like-named read-outs stand apart in the source and are kept apart here.

Key:
Type in all cases: cell-based
[1] = system: Escherichia coli (E. coli—ATCC #8739); assay: Synergy test, microtiter plate high resolution MIC assay, bacterium in M9GY medium; design: key to SI (synergy index): SI = Qa/QA + Qb/QB; >1 antagonism, lower SI = greater synergy; Qa (First Component A) / Qb (Second Component B): unit: ppm; conditions: for MIC: Escherichia coli
Experimental: (§1) When the sum of Qa/QA and Qb/QB is greater than one, antagonism is indicated. […] The lower the SI, the greater the synergy shown by that particular mixture. The minimum inhibitory concentration (MIC) of a microbicide is the lowest concentration tested under a specific set of conditions that prevents the growth of added microorganisms.
(§2) Synergy tests were conducted using standard microtiter plate assays with media designed for optimal growth of the test microorganism. Minimal salt medium supplemented with 0.2% glucose and 0.1% yeast extract (M9GY medium) was used for testing bacteria; Potato Dextrose Broth (PDB medium) was used for testing yeast and mold. In this method, a wide range of combinations of microbicides and other personal care raw materials was tested by conducting high resolution MIC assays in the presence of various concentrations of BBIT or MBIT. High resolution MICs were determined by adding varying amounts of microbicide to one column of a microtitre plate and doing subsequent […] dilutions using an automated liquid handling system to obtain a series of endpoints ranging from 2 ppm to 10,000 ppm active ingredient.
(§3) The bacteria were used at a concentration of about 5 ×10^6 bacteria per mL and the yeast and mold at 5×10^5 fungi per mL. These microorganisms are representative of natural contaminants in many consumer and industrial applications. […] (yeast and mold) or 30° C. (bacteria).
(§4) In each test, First Component (A) was BBIT and the Second Component (B) was the other commercial microbicide.
(§5) In each test, First Component (A) was MBIT and the Second Component (B) was the other commercial microbicide.

[2] = system: Candida albicans (C. albicans—ATCC 10231); assay: Synergy test, microtiter plate high resolution MIC assay, yeast in PDB medium; design: key to SI (synergy index): SI = Qa/QA + Qb/QB; >1 antagonism, lower SI = greater synergy; Qb (Second Component B) / Qa (First Component A): unit: ppm; conditions: for MIC: Candida albicans
Experimental: as §1, §2, §3, §4, §5

[3] = system: Aspergillus niger (A. niger—ATCC 16404); assay: Synergy test, microtiter plate high resolution MIC assay, mold in PDB medium; design: key to SI (synergy index): SI = Qa/QA + Qb/QB; >1 antagonism, lower SI = greater synergy; Qb (Second Component B) / Qa (First Component A): unit: ppm; conditions: for MIC: Aspergillus niger
Experimental: as §1, §2, §3, §4, §5

[4] = A=MBIT, B=Benzyl alcohol, E. coli 8739 - M9GY, 24 hours
[5] = ATCC8739, E. coli 8739, M9GY, 24 hours, 30° C., read-out: MIC of the component acting alone (QA / QB)
[6] = A=MBIT, B=Benzyl alcohol, C. albicans 10231 - PDB, 48 hours
[7] = ATCC10231, C. albicans 10231, PDB, 48 hours, 25° C., read-out: MIC of the component acting alone (QA / QB)
[8] = A=MBIT, B=Benzyl alcohol, A. niger 16404 - PDB, 4 days
[9] = ATCC8739, E. coli 8739, M9GY, 24 hours, alone where Qa = 0, otherwise in the mixture, read-out: Qb (concentration of second component producing the end point, MIC)
[10] = C. albicans 10231, PDB, 24 hours
[11] = ATCC10231, C. albicans 10231, PDB, 24 hours, alone where Qa = 0, otherwise in the mixture, read-out: Qb (concentration of second component producing the end point, MIC)
[12] = ATCC16404, 168 h, A. niger 16404, PDB, 7 days, alone where Qa = 0, otherwise in the mixture, read-out: Qb (concentration of second component producing the end point, MIC)
[13] = ATCC16404, 168 h, A. niger 16404, PDB, 7 days, 25° C., read-out: MIC of the component acting alone (QA / QB)
[14] = A=MBIT, B=2-bromo-2-nitro-propane-1,3-diol (BNPD), E. coli 8739 - M9GY, 24 hours
[15] = A=MBIT, B=2-bromo-2-nitro-propane-1,3-diol (BNPD), C. albicans 10231 - PDB, 24 hours
[16] = A=MBIT, B=2-bromo-2-nitro-propane-1,3-diol (BNPD), A. niger 16404 - PDB, 4 days

`OCc1ccccc1` [Benzyl alcohol] was tested, and the “Qb (Second Component B)” value [1, 4] was 5000, the “SI (synergy index)” value [1, 4] was 1.00 and the MIC [1, 5] was 2000 µg/mL. For the same compound, the “Qb (Second Component B)” value [2, 6] was 4000, the “SI (synergy index)” value [2, 6] was 1.00 and the MIC [2, 7] was 3000 µg/mL. The “Qb (Second Component B)” value [3, 8] was 6000, the “SI (synergy index)” value [3, 8] was 1.00 and the MIC ([3]; ATCC16404, 72 h, A. niger 16404, PDB, 3 days, 25° C., read-out: MIC of the component acting alone (QA / QB)) was 5000 µg/mL.
With `CC(=O)C1C(=O)C=C(C)OC1=O` (stereo not drawn) [Dehydroacetic acid, sodium salt] the “SI (synergy index)” value ([1]; E. coli 8739, M9GY, 24 hours) was 1.00, the MIC [1, 9] was 20000 µg/mL and the “SI (synergy index)” value [2, 10] was 1.00. For the same compound, the MIC [2, 11] was 40 µg/mL, the “SI (synergy index)” value ([3]; A. niger 16404, PDB, 7 days) was 1.00 and the MIC [3, 12] was 200 µg/mL.
For `C/C=C/C=C/C(=O)[O-].[K+]` [Potassium sorbate], the SI [1] was 1.00, the “SI (synergy index)” value [1] was 1.00 and the MIC ([1]; ATCC8739, 48 h, read-out: Qb (concentration of second component producing the end point, MIC)) was 20000 µg/mL. The SI [2] was 1.00, the “SI (synergy index)” value [2] was 1.00 and the MIC ([2]; ATCC10231, 24 h, read-out: Qb (concentration of second component producing the end point, MIC)) was 400 µg/mL. For the same compound, the SI [3] was 1.00, the “SI (synergy index)” value [3] was 1.00 and the MIC ([3]; ATCC16404, 96 h, read-out: Qb (concentration of second component producing the end point, MIC)) was 10000 µg/mL.
`CCOC(=O)c1ccc(O)cc1` [Ethylparaben] was tested, and the “SI (synergy index)” value ([1]; E. coli 8739, M9GY, 24 hours) was 1.00, the MIC [1, 5] was 2000 µg/mL and the MIC [1, 9] was 2000 µg/mL. The “SI (synergy index)” value [2, 10] was 1.00, the MIC ([2]; ATCC10231, C. albicans 10231, PDB, 24 hours, 25° C., read-out: MIC of the component acting alone (QA / QB)) was 800 µg/mL and the MIC [2, 11] was 2000 µg/mL. For the same compound, the “SI (synergy index)” value ([3]; A. niger 16404, PDB, 7 days) was 1.00, the MIC [3, 13] was 800 µg/mL and the MIC [3, 12] was 800 µg/mL.
For `O=[N+]([O-])C(Br)(CO)CO` [BNPD, 2-bromo-2-nitro-propane-1,3-diol], the “Qb (Second Component B)” value [1, 14] was 8, the “SI (synergy index)” value [1, 14] was 1.00 and the MIC ([1]; ATCC8739, E. coli 8739, M9GY, 48 hours, 30° C., read-out: MIC of the component acting alone (QA / QB)) was 10 µg/mL. The “Qb (Second Component B)” value [2, 15] was 1000, the “SI (synergy index)” value [2, 15] was 1.00 and the MIC [2, 7] was 2000 µg/mL. For the same compound, the “Qb (Second Component B)” value [3, 16] was 2000, the “SI (synergy index)” value [3, 16] was 1.00 and the MIC [3, 13] was 2000 µg/mL.
With `CC(=O)C1C(=O)C=C(C)OC1=O` (stereo not drawn) [dehydroacetic acid, sodium salt] the SI ([1]; E. coli 8739 - M9GY, 24 hours, BBIT with SDHA) was 1.00, the SI ([2]; C. albicans 10231 - PDB, 24 hours, BBIT with SDHA) was 1.00 and the SI ([3]; A. niger 16404 - PDB, 7 days, BBIT with SDHA) was 1.00.
With `OCCCCO` [Butylene glycol] the “Qb (Second Component B)” value [1] was 20000, the “SI (synergy index)” value [1] was 1.00 and the MIC ([1]; ATCC8739, 48 h, read-out: MIC of the component acting alone (QA / QB)) was 20000 µg/mL. For the same compound, the “Qb (Second Component B)” value [2] was 20000, the “SI (synergy index)” value [2] was 1.00 and the MIC ([2]; ATCC10231, 24 h, read-out: MIC of the component acting alone (QA / QB)) was 20000 µg/mL. For the same compound, the “Qb (Second Component B)” value [3] was 10000, the “SI (synergy index)” value [3] was 1.00 and the MIC ([3]; ATCC16404, 72 h, read-out: MIC of the component acting alone (QA / QB)) was 10000 µg/mL.
